From ChEMBL document CHEMBL5724914, “Linking interpersonal differences in gut microbiota composition and drug biotransformation activity” (2024)

Tests used:
[1] = (§1) The drug is tested on Z-014 corresponding to rat gut metagenome with ENA study accession number: PRJEB37062 and ENA sample accession number: ERS12561814 for biotransformation under anaerobic condition. The drug concentrations were measured over 9 timepoints collected between 0 and 24 hours of incubation by liquid-chromatography-coupled mass spectrometry (LC–MS); settings: 2 µM
[2] = human gut metagenome, 24 h, 2 µM
[3] = as §1, with “Z-027” for “Z-014”, “to” for “to rat gut”, “ERS12561826” for “ERS12561814”; settings: 2 µM
[4] = as §1, with “on WLS-086” for “on Z-014”, “to human” for “to rat”, “number: ERS12561752” for “number: ERS12561814”; settings: 2 µM
[5] = as §1, with “on Z-016” for “on Z-014”, “to mouse” for “to rat”, “number: ERS12561815” for “number: ERS12561814”; settings: 2 µM
[6] = as §1, with “on Z-009” for “on Z-014”, “to pig” for “to rat”, “number: ERS12561809” for “number: ERS12561814”; settings: 2 µM
[7] = human gut metagenome, 24 h, 2 µM; remark: listed apart in the source
[8] = human gut metagenome, 24 h, 2 µM; remark: listed apart in the source
[9] = human gut metagenome, 24 h, 2 µM; remark: listed apart in the source
[10] = human gut metagenome, 24 h, 2 µM; remark: listed apart in the source
[11] = as §1, with “on Z-001” for “on Z-014”, “to mouse” for “to rat”, “number: ERS12561801” for “number: ERS12561814”; settings: 2 µM
[12] = as §1, with “on WLS-370” for “on Z-014”, “to human” for “to rat”, “number: ERS12561793” for “number: ERS12561814”; settings: 2 µM
[13] = human gut metagenome, 24 h, 2 µM; remark: listed apart in the source
[14] = human gut metagenome, 24 h, 2 µM; remark: listed apart in the source
[15] = as §1, with “on Z-030” for “on Z-014”, “to mouse” for “to rat”, “number: ERS12561829” for “number: ERS12561814”; settings: 2 µM
[16] = human gut metagenome, 24 h, 2 µM; remark: listed apart in the source
[17] = as §1, with “on Z-003” for “on Z-014”, “to pig” for “to rat”, “number: ERS12561803” for “number: ERS12561814”; settings: 2 µM
[18] = human gut metagenome, 24 h, 2 µM; remark: listed apart in the source
[19] = as §1, with “Z-004” for “Z-014”, “to” for “to rat gut”, “ERS12561804” for “ERS12561814”; settings: 2 µM
[20] = as §1, with “Z-023” for “Z-014”, “to” for “to rat gut”, “ERS12561822” for “ERS12561814”; settings: 2 µM
Note: call rule not given here.

| Bacterial Biotransformation [1] | Bacterial Biotransformation [2] | Bacterial Biotransformation [3] | Bacterial Biotransformation [4] | Bacterial Biotransformation [5] | Bacterial Biotransformation [6] | Bacterial Biotransformation [7] | Bacterial Biotransformation [8] | Bacterial Biotransformation [9] | Bacterial Biotransformation [10] | Bacterial Biotransformation [11] | Bacterial Biotransformation [12] | Bacterial Biotransformation [13] | Bacterial Biotransformation [14] | Bacterial Biotransformation [15] | Bacterial Biotransformation [16] | Bacterial Biotransformation [17] | Bacterial Biotransformation [18] | Bacterial Biotransformation [19] | Bacterial Biotransformation [20] | SMILES |
| --- | --- | --- | --- | --- | --- | --- | --- | --- | --- | --- | --- | --- | --- | --- | --- | --- | --- | --- | --- | --- |
| Compound NOT metabolized | Compound metabolized | Compound NOT metabolized | Compound metabolized | Compound metabolized | Compound metabolized | Compound metabolized | Compound metabolized | Compound metabolized | Compound NOT metabolized | Compound metabolized | Compound metabolized | Compound metabolized | Compound NOT metabolized | Compound NOT metabolized | Compound metabolized | Compound metabolized | Compound metabolized | Compound metabolized | Compound metabolized | CCCc1nc(C(C)(C)O)c(C(=O)OCc2oc(=O)oc2C)n1Cc1ccc(-c2ccccc2-c2nnn[nH]2)cc1 [OLMESARTAN MEDOXOMIL] |
| Compound metabolized | Compound metabolized | Compound metabolized | Compound metabolized | Compound metabolized | Compound metabolized | Compound NOT metabolized | Compound metabolized | Compound metabolized | Compound NOT metabolized | Compound NOT metabolized | Compound metabolized | Compound metabolized | Compound metabolized | Compound NOT metabolized | Compound metabolized | Compound metabolized | Compound metabolized | Compound NOT metabolized | Compound metabolized | CC(C)c1nc(CN(C)C(=O)N[C@H](C(=O)N[C@@H](Cc2ccccc2)C[C@H](O)[C@H](Cc2ccccc2)NC(=O)OCc2cncs2)C(C)C)cs1 [RITONAVIR] |
| Compound NOT metabolized | Compound NOT metabolized | Compound NOT metabolized | Compound metabolized | Compound NOT metabolized | Compound NOT metabolized | Compound NOT metabolized | Compound metabolized | Compound metabolized | Compound NOT metabolized | Compound NOT metabolized | Compound NOT metabolized | Compound metabolized | Compound metabolized | Compound NOT metabolized | Compound metabolized | Compound NOT metabolized | Compound NOT metabolized | Compound NOT metabolized | Compound NOT metabolized | Nc1c2c(nc3ccccc13)CCCC2 [TACRINE] |

Continued, compound first:

| SMILES | Bacterial Biotransformation [1] | Bacterial Biotransformation [2] | Bacterial Biotransformation [3] | Bacterial Biotransformation [4] | Bacterial Biotransformation [5] | Bacterial Biotransformation [6] | Bacterial Biotransformation [7] | Bacterial Biotransformation [8] | Bacterial Biotransformation [9] | Bacterial Biotransformation [10] | Bacterial Biotransformation [11] | Bacterial Biotransformation [12] | Bacterial Biotransformation [13] | Bacterial Biotransformation [14] | Bacterial Biotransformation [15] | Bacterial Biotransformation [16] | Bacterial Biotransformation [17] | Bacterial Biotransformation [18] | Bacterial Biotransformation [19] | Bacterial Biotransformation [20] |
| --- | --- | --- | --- | --- | --- | --- | --- | --- | --- | --- | --- | --- | --- | --- | --- | --- | --- | --- | --- | --- |
| N#Cc1ccc(C(c2ccc(C#N)cc2)n2cncn2)cc1 [LETROZOLE] | Compound NOT metabolized | Compound NOT metabolized | Compound NOT metabolized | Compound NOT metabolized | Compound NOT metabolized | Compound NOT metabolized | Compound NOT metabolized | Compound NOT metabolized | Compound NOT metabolized | Compound NOT metabolized | Compound NOT metabolized | Compound NOT metabolized | Compound NOT metabolized | Compound NOT metabolized | Compound NOT metabolized | Compound NOT metabolized | Compound NOT metabolized | Compound NOT metabolized | Compound NOT metabolized | Compound metabolized |
| CC(=O)CC(c1ccccc1)c1c(O)c2ccccc2oc1=O (stereo not given) [WARFARIN] | Compound metabolized | Compound metabolized | Compound NOT metabolized | Compound metabolized | Compound metabolized | Compound metabolized | Compound NOT metabolized | Compound metabolized | Compound metabolized | Compound metabolized | Compound NOT metabolized | Compound metabolized | Compound metabolized | Compound metabolized | Compound NOT metabolized | Compound metabolized | Compound metabolized | Compound metabolized | Compound metabolized | Compound metabolized |
| COc1ccc2c3c1O[C@H]1C[C@@H](O)C=C[C@@]31CCN(C)C2 [GALANTAMINE] | Compound NOT metabolized | Compound NOT metabolized | Compound NOT metabolized | Compound metabolized | Compound NOT metabolized | Compound NOT metabolized | Compound NOT metabolized | Compound metabolized | Compound metabolized | Compound metabolized | Compound NOT metabolized | Compound NOT metabolized | Compound metabolized | Compound NOT metabolized | Compound NOT metabolized | Compound NOT metabolized | Compound NOT metabolized | Compound NOT metabolized | Compound NOT metabolized | Compound NOT metabolized |
| O=P(O)(O)O.c1ccc(CN(CC2=NCCN2)c2ccccc2)cc1 [ANTAZOLINE PHOSPHATE] | Compound NOT metabolized | Compound NOT metabolized | Compound NOT metabolized | Compound metabolized | Compound NOT metabolized | Compound NOT metabolized | Compound NOT metabolized | Compound metabolized | Compound metabolized | Compound metabolized | Compound NOT metabolized | Compound metabolized | Compound metabolized | Compound metabolized | Compound NOT metabolized | Compound metabolized | Compound metabolized | Compound NOT metabolized | Compound metabolized | Compound NOT metabolized |
| CCN(CC)CCNC(=O)c1cc(Cl)c(N)cc1OC [METOCLOPRAMIDE] | Compound NOT metabolized | Compound NOT metabolized | Compound NOT metabolized | Compound metabolized | Compound NOT metabolized | Compound NOT metabolized | Compound NOT metabolized | Compound NOT metabolized | Compound NOT metabolized | Compound NOT metabolized | Compound NOT metabolized | Compound NOT metabolized | Compound NOT metabolized | Compound NOT metabolized | Compound NOT metabolized | Compound NOT metabolized | Compound NOT metabolized | Compound NOT metabolized | Compound NOT metabolized | Compound NOT metabolized |
